US20170224840A1, “Drug Delivery System Comprising A Cancer Stem Cell-Targeted Carbon Nanotube, Preparation and Use Thereof” (Institute of Pharmacology and Toxicology Academy of …, priority 2014, published 2017)

Tests used:
[1] = tested on: breast cancer stem cells; conditions: cited from earlier work
[2] = tested on: CD44− cells; experiment: WST-8 proliferation inhibition, CD44- cells; type: cell-based, human; conditions: 48 h, series of concentrations
Description: (§1) CD44+ cells and CD44-cells sorted from human gastric cancer cell line AGS were seeded in an amount of 5000/well to 96-well plates, and incubated for 24 h at 37° C. in a 5% CO2 incubator. Free salinomycin in a series of concentrations, SAL-SWNTs-CHI, SAL-SWNTs-CHI-HA or blank SWNTs-CHI-HA were added to, and same amount of drug-free culture medium was used as blank control. After the addition, the 96-well plates were incubated for 48 h at 37° C. in a 5% CO2 incubator. After the completion of the cell culture, the plates were taken out and the culture media in the wells were removed. After washing with sterile PBS, 100 μL of PBS and 10 μL of WST-8 reagent were added to each well, and incubation was continued for 2 hours. Optical density (OD) was measured at the wavelength of 450 nm using a microplate reader. The toxicities of various salinomycin preparations on gastric cancer stem cells were evaluated by using the percentages of surviving cells (Survival rate, %) after the addition and culture. The percentages of surviving cells were calculated according to the following formula:
(§2) Inhibition rate=1−Cell survival rate.

[3] = tested on: AGS cells; experiment: Effect on proportion of CD44+ cells in AGS cells (flow cytometry); type: cell-based, human; conditions: drug concentration 1.0 μM, 48 h; blank control 5.2±0.1%
Description: In order to measure the effects of various salinomycin dosage forms on the expression of CD44 in AGS cells, AGS cells were seeded in 6-well plates at 3×10^5 cells/well. After incubation for 24 h, AGS cells were incubated with free mitomycin, free salinomycin, SAL-SWNTs-CHI or SAL-SWNTs-CHI-HA (drug concentration was 1.0 μM) separately at 37° C. for 48 h. The blank medium was used as control. After incubation, the cells were washed three times with cold PBS, digested with 0.25% trypsin, and then pipetted with PBS to make cell suspensions. The expression rates of CD44 in AGS cells were detected by flow cytometry.

[4] = tested on: CD44+ cells; experiment: WST-8 proliferation inhibition, CD44+ cells; type: cell-based, human; conditions: 48 h, series of concentrations
Description: as §1, §2

[5] = tested on: CD44+ cells; experiment: Apoptosis by Annexin V-FITC / propidium iodide flow cytometry; type: cell-based, human; conditions: drug concentration 5.0 μM, 12 h
Description: Flow cytometry was used to detect the apoptosis of gastric cancer stein cells via double-staining method with Annexin V-FITC and propidium iodide (PI), so as to observe the activities of various salinomycin dosage forms in induction of apoptosis of gastric cancer stem cells. CD44+ cells were seeded in a 6-well cell culture plate in an amount of 5×10^5 cells/well (2 ml), and incubated at 37° C. in a 5% CO2 cell incubator for 24 h; and separately added with PBS (pH 7.4, 0.1 M), blank SWNTs-CHI-HA, free salinomycin, SAL-SWNTs-CHI or SAL-SWNTs-CHI-HA (drug concentration: 5.0 μM), and continuously incubated at 37° C. for 12 h in a 5% CO2 cell incubator. The 6-well cell culture plate was removed from the cell culture incubator, the supernatant was carefully sucked up; the cells were washed three times with cold pH7.4 PBS, collected and suspended in 200 μl of binding buffer. 5 μl of Annexin V-FITC and 5 μl of propidium iodide were added in the dark, placed in the dark at room temperature for 15 min, and the apoptotic rate of the cells was detected by flow cytometry.

[6] = cited from earlier work
[7] = tested on: gastric cancer stem cell spheres; experiment: Inhibition of growth of gastric cancer stem cell spheres; type: cell-based, human; conditions: salinomycin 5 μM, 6th day after administration; PBS 433.3±6.0%
Description: (§3) CD44+ cell suspension was inoculated to a low-absorption 24-well plate in an amount of 5×10^4/well, and subjected to suspension culture with DMEM/F12 medium (1% N2, 2% B27, 10 ng/mL bFGF, 20 ng/mL EGF), incubated in a 5% CO2 incubator at 37° C. for 6 days. Medium was replaced every three days. The stem cell spheres with diameter of more than 200 μm were transferred to a 96-well culture plate, one sphere per well.
To the wells of 96-well culture plate, PBS, free salinomycin, SAL-SWNTs-CHI or SAL-SWNTs-CHI-HA were added, respectively, and the concentration of salinomycin in the above preparations was 5 μM. After addition, the 96-well plate was placed in a 37° C., 5% CO2 incubator and incubated continuously. The growth of tumor spheres under these conditions was observed. […] The formula for calculating the inhibition rate of tumor sphere growth was as follows: […], in which dmax was maximum diameter, dmin was minimum diameter; tumor sphere volume change rate %=(Vdayi/Vday0) 100%, in which Vdayi represents the volume of stem cell spheres on the i^th day after administration, and Vday0 represents the volume of stem cell spheres before administration.

[8] = tested on: gastric cancer stem cell spheres; experiment: Penetration of stem cell spheres by laser confocal microscopy; type: cell-based, human; conditions: FITC 5 uM, 12 hours
Description: as §3
Free FITC, FITC-SWNTs-CHI or FITC-SWNTs-CHI-HA were separately added to the wells of a 96-well plate containing stem cell spheres, and the concentration of FITC in the above preparations was 5 uM. After the addition, the 96-well plate was placed in a 37° C., 5% CO2 incubator to continue the culture for 12 hours; then the stem cell spheres were transferred to a glass-bottom dish, 5 stem cell spheres in each group, washed three times with fresh culture medium, and then 100 μl of fresh culture medium was added in each dish; for each stem cell sphere, it was light-cut into layers from the top to the center of the sphere at 10 μm intervals, and FITC fluorescence intensities of different layers were studied.

| Compound | Effect of killing breast cancer stem cells relative to paclitaxel [1] | Inhibitory effect on proliferation of CD44− cells [2] | Proportion of CD44+ cells after treatment [3] | Inhibitory effect on proliferation of CD44+ cells [4] | Apoptotic rate of gastric cancer stem cells [5] | Necrosis rate of gastric cancer stem cells [5] | Water solubility [6] | Volume change rate of cell spheres [7] | FITC fluorescence in stem cell spheres (penetration) [8] |
| --- | --- | --- | --- | --- | --- | --- | --- | --- | --- |
| CC[C@@H](C(=O)[C@@H](C)[C@@H](O)[C@H](C)[C@@H]1O[C@@H]([C@@H](CC)C(=O)O)CC[C@@H]1C)[C@H]1O[C@]2(C=C[C@@H](O)[C@]3(CC[C@@](C)([C@H]4CC[C@](O)(CC)[C@H](C)O4)O3)O2)[C@H](C)C[C@@H]1C [Salinomycin] | more than 100 times | strongest inhibitory effect | 1.75±0.21% | significant inhibitory effects | 34.8% | 4.3% | poor | 179.5±5.8% |  |
| CO[C@@]12[C@H](COC(N)=O)C3=C(C(=O)C(C)=C(N)C3=O)N1C[C@@H]1N[C@@H]12 [mitomycin C] |  |  | 74.9±1.0% |  |  |  |  |  |  |
| fluorescein isothiocyanate [free FITC] |  |  |  |  |  |  |  |  | weakest fluorescence intensity |
